From patent US11505543B2, “4-oxo-3,4-dihydroquinazoline compounds as inhibitors of human immunodeficiency virus replication” (VIIV HEALTHCARE UK (NO.5) LIMITED, priority 2018, dated 2022)

Tests used:
[1] = Compound cytotoxicity, XTT-based colorimetric assay; type: cell-based; conditions: human, uninfected MT2 cells, day 4, XTT
Procedure: Compound cytotoxicity and the corresponding CC50 values were determined using the same protocol as described in the antiviral assay except that uninfected cells were used. Cytotoxicity was assessed on day 4 in uninfected MT2 cells by using a XTT (2,3-bis[2-Methoxy-4-nitro-5-sulfophenyl]-2H-tetrazolium-5-carboxyanilide inner salt)-based colorimetric assay (Sigma-Aldrich, St Louis, Mo.).

[2] = system: recombinant NL4-3 virus (nef section replaced with Renilla luciferase gene) in MT-2 cells; test: HIV cell culture assay (antiviral activity, luciferase readout); type: cell-based; conditions: Renilla, NL43, MT-2 cells infected for 4-5 days with recombinant NL4-3 Renilla luciferase virus, serial dilutions of compound
Procedure: HIV cell culture assay—MT-2 cells, 293T cells and the proviral DNA clone of NL4-3 virus were obtained from the NIH AIDS Research and Reference Reagent Program. MT-2 cells were propagated in RPMI 1640 media supplemented with 10% heat inactivated fetal bovine serum (FBS), 100 μg/ml penicillin G and up to 100 units/mL streptomycin. The 293T cells were propagated in DMEM media supplemented with 10% heat inactivated FBS, 100 μg/mL penicillin G and 100 μg/mL streptomycin. A recombinant NL4-3 proviral clone, in which a section of the nef gene was replaced with the Renilla luciferase gene, was used to make the reference virus used in these studies. The recombinant virus was prepared through transfection of the recombinant NL4-3 proviral clone into 293T cells using Transit-293 Transfection Reagent from Mirus Bio LLC (Madison, Wis.). Supernatent was harvested after 2-3 days and the amount of virus present was titered in MT-2 cells using luciferase enzyme activity as a marker by measuring luciferase enzyme activity. Luciferase was quantitated using the EnduRen Live Cell Substrate from Promega (Madison, Wis.). Antiviral activities of compounds toward the recombinant virus were quantified by measuring luciferase activity in MT-2 cells infected for 4-5 days with the recombinant virus in the presence of serial dilutions of the compound.
The 50% effective concentration (EC50) was calculated by using the exponential form of the median effect equation where (Fa)=1/[1+(ED50/drug conc.)^m] (Johnson VA, Byington RT. Infectivity Assay. In Techniques in HIV Research. ed. Aldovini A, Walker BD. 71-76. New York: Stockton Press. 1990). Curve fitting and analysis were performed with ActivityBase XE Runner software version 9.1.0.4 using model 203 (ID Business Solutions, LTD, Guildford, UK).

Row | SMILES | CC50 at 4 day [1] | EC50 [2]
1 | O=C(Cn1ccc(C2CC2)n1)N[C@@H](Cc1cc(F)cc(F)c1)c1nc2cc(-c3ccccc3F)ccc2c(=O)n1-c1ccc(Cl)c2c(NS(=O)(=O)C3CC3)nn(CC(F)F)c12 (atropisomer, axis not shown) [Example 134, (S)-N-(1-(3-(4-chloro-3-(cyclopropanesulfonamido)-1-(2,2-difluoroethyl)-1H-indazol-7-yl)-7-(2-fluorophenyl)-4-oxo-3,4-dihydroquinazolin-2-yl)-2-(3,5-difluorophenyl)ethyl)-2-(3-cyclopropyl-1H-pyrazol-1-yl)acetamide] | > 1000 nM | 10 nM
2 | CC(C)c1ccn(CC(=O)N[C@@H](Cc2cc(F)cc(F)c2)c2nc3cc(-c4ccccc4F)ccc3c(=O)n2-c2ccc(Cl)c3c(NS(=O)(=O)C4CC4)nn(CC(F)F)c23)n1 (atropisomer, axis not shown) [Example 135, (S)-N-(1-(3-(4-chloro-3-(cyclopropanesulfonamido)-1-(2,2-difluoroethyl)-1H-indazol-7-yl)-7-(2-fluorophenyl)-4-oxo-3,4-dihydroquinazolin-2-yl)-2-(3,5-difluorophenyl)ethyl)-2-(3-isopropyl-1H-pyrazol-1-yl)acetamide] | > 1000 nM | 13 nM
3 | O=C(Cn1nc(C(F)F)cc1C(F)F)N[C@@H](Cc1cc(F)cc(F)c1)c1nc2cc(-c3ccccc3F)ccc2c(=O)n1-c1ccc(Cl)c2c(NS(=O)(=O)C3CC3)nn(CC(F)F)c12 (atropisomer, axis not shown) [Example 136, (S)-2-(3,5-bis(difluoromethyl)-1H-pyrazol-1-yl)-N-(1-(3-(4-chloro-3-(cyclopropanesulfonamido)-1-(2,2-difluoroethyl)-1H-indazol-7-yl)-7-(2-fluorophenyl)-4-oxo-3,4-dihydroquinazolin-2-yl)-2-(3,5-difluorophenyl)ethyl)acetamide] | > 1000 nM | 9.5 nM
4 | Cn1nc(NS(C)(=O)=O)c2c(Cl)ccc(-n3c([C@H](Cc4cc(F)cc(F)c4)NC(=O)Cn4nc(C(F)F)c5c4C(F)(F)[C@@H]4C[C@H]54)nc4cc(-c5ccccc5-c5ccccc5)ccc4c3=O)c21 (atropisomer, axis not shown; (aR)) [Example 9, N-((S)-1-(7-([1,1′-biphenyl]-2-yl)-3-(4-chloro-1-methyl-3-(methylsulfonamido)-1H-indazol-7-yl)-4-oxo-3,4-dihydroquinazolin-2-yl)-2-(3,5-difluorophenyl)ethyl)-2-((3bS,4aR)-3-(difluoromethyl)-5,5-difluoro-3b,4,4a,5-tetrahydro-1H-cyclopropa[3,4]cyclopenta[1,2-c]pyrazol-1-yl)acetamide] | > 1000 nM | 4.6 nM
5 | Cn1nc(NS(C)(=O)=O)c2c(Cl)ccc(-n3c([C@H](Cc4cc(F)cc(F)c4)NC(=O)Cn4nc(C(F)F)c5c4C(F)(F)[C@@H]4C[C@H]54)nc4cc(-c5ccc(Oc6ccccc6)cc5)ccc4c3=O)c21 (atropisomer, axis not shown; (aR)) [Example 14, N-((S)-1-(3-(4-chloro-1-methyl-3-(methylsulfonamido)-1H-indazol-7-yl)-4-oxo-7-(4-phenoxyphenyl)-3,4-dihydroquinazolin-2-yl)-2-(3,5-difluorophenyl)ethyl)-2-((3bS,4aR)-3-(difluoromethyl)-5,5-difluoro-3b,4,4a,5-tetrahydro-1H-cyclopropa[3,4]cyclopenta[1,2-c]pyrazol-1-yl)acetamide] | > 1000 nM | 9.8 nM
6 | Cn1nc(NS(C)(=O)=O)c2c(Cl)ccc(-n3c([C@H](Cc4cc(F)cc(F)c4)NC(=O)Cn4nc(C(F)F)c5c4C(F)(F)[C@@H]4C[C@H]54)nc4cc(-c5cccc(C(=O)O)c5)ccc4c3=O)c21 (atropisomer, axis not shown; (aR)) [Example 17, 3-(3-(4-chloro-1-methyl-3-(methylsulfonamido)-1H-indazol-7-yl)-2-((S)-1-(2-((3bS,4aR)-3-(difluoromethyl)-5,5-difluoro-3b,4,4a,5-tetrahydro-1H-cyclopropa[3,4]cyclopenta[1,2-c]pyrazol-1-yl)acetamido)-2-(3,5-difluorophenyl)ethyl)-4-oxo-3,4-dihydroquinazolin-7-yl)benzoic acid] | > 1000 nM | 9.7 nM
7 | Cn1nc(NS(C)(=O)=O)c2c(Cl)ccc(-n3c([C@H](Cc4cc(F)cc(F)c4)NC(=O)Cn4nc(C(F)F)c5c4C(F)(F)[C@@H]4C[C@H]54)nc4cc(-c5ccc(C(C)(C)O)cc5)ccc4c3=O)c21 (atropisomer, axis not shown; (aR)) [Example 18, N-((S)-1-(3-(4-chloro-1-methyl-3-(methylsulfonamido)-1H-indazol-7-yl)-7-(4-(2-hydroxypropan-2-yl)phenyl)-4-oxo-3,4-dihydroquinazolin-2-yl)-2-(3,5-difluorophenyl)ethyl)-2-((3bS,4aR)-3-(difluoromethyl)-5,5-difluoro-3b,4,4a,5-tetrahydro-1H-cyclopropa[3,4]cyclopenta[1,2-c]pyrazol-1-yl)acetamide] | > 1000 nM | 0.34 nM
8 | Cn1nc(NS(C)(=O)=O)c2c(Cl)ccc(-n3c([C@H](Cc4cc(F)cc(F)c4)NC(=O)Cn4nc(C(F)F)c5c4C(F)(F)[C@@H]4C[C@H]54)nc4cc(-c5cnc(F)c(F)c5)ccc4c3=O)c21 (atropisomer, axis not shown; (aR)) [Example 25, N-((S)-1-(3-(4-chloro-1-methyl-3-(methylsulfonamido)-1H-indazol-7-yl)-7-(5,6-difluoropyridin-3-yl)-4-oxo-3,4-dihydroquinazolin-2-yl)-2-(3,5-difluorophenyl)ethyl)-2-((3bS,4aR)-3-(difluoromethyl)-5,5-difluoro-3b,4,4a,5-tetrahydro-1H-cyclopropa[3,4]cyclopenta[1,2-c]pyrazol-1-yl)acetamide] | > 1000 nM | 0.25 nM
9 | Cc1cccc(C)c1-c1ccc2c(=O)n(-c3ccc(Cl)c4c(NS(C)(=O)=O)nn(C)c34)c([C@H](Cc3cc(F)cc(F)c3)NC(=O)Cn3nc(C(F)F)c4c3C(F)(F)[C@@H]3C[C@H]43)nc2c1 (atropisomer, axis not shown; (aR)) [Example 26, N-((S)-1-(3-(4-chloro-1-methyl-3-(methylsulfonamido)-1H-indazol-7-yl)-7-(2,6-dimethylphenyl)-4-oxo-3,4-dihydroquinazolin-2-yl)-2-(3,5-difluorophenyl)ethyl)-2-((3bS,4aR)-3-(difluoromethyl)-5,5-difluoro-3b,4,4a,5-tetrahydro-1H-cyclopropa[3,4]cyclopenta[1,2-c]pyrazol-1-yl)acetamide] | > 1000 nM | 0.72 nM
10 | Cn1nc(NS(C)(=O)=O)c2c(Cl)ccc(-n3c([C@H](Cc4cc(F)cc(F)c4)NC(=O)Cn4nc(C(F)F)c5c4C(F)(F)[C@@H]4C[C@H]54)nc4cc(-c5ccc6c(c5)CCCO6)ccc4c3=O)c21 (atropisomer, axis not shown; (aR)) [Example 28, N-((S)-1-(3-(4-chloro-1-methyl-3-(methylsulfonamido)-1H-indazol-7-yl)-7-(chroman-6-yl)-4-oxo-3,4-dihydroquinazolin-2-yl)-2-(3,5-difluorophenyl)ethyl)-2-((3bS,4aR)-3-(difluoromethyl)-5,5-difluoro-3b,4,4a,5-tetrahydro-1H-cyclopropa[3,4]cyclopenta[1,2-c]pyrazol-1-yl)acetamide] | > 1000 nM | 3.2 nM
11 | Cn1nc(NS(C)(=O)=O)c2c(Cl)ccc(-n3c([C@H](Cc4cc(F)cc(F)c4)NC(=O)Cn4nc(C(F)F)c5c4C(F)(F)[C@@H]4C[C@H]54)nc4cc(-c5cccc(F)c5)ccc4c3=O)c21 (atropisomer, axis not shown; (aR)) [Example 30, N-((S)-1-(3-(4-chloro-1-methyl-3-(methylsulfonamido)-1H-indazol-7-yl)-7-(3-fluorophenyl)-4-oxo-3,4-dihydroquinazolin-2-yl)-2-(3,5-difluorophenyl)ethyl)-2-((3bS,4aR)-3-(difluoromethyl)-5,5-difluoro-3b,4,4a,5-tetrahydro-1H-cyclopropa[3,4]cyclopenta[1,2-c]pyrazol-1-yl)acetamide] | > 1000 nM | 0.88 nM
12 | Cn1nc(NS(C)(=O)=O)c2c(Cl)ccc(-n3c([C@H](Cc4cc(F)cc(F)c4)NC(=O)Cn4nc(C(F)F)c5c4C(F)(F)[C@@H]4C[C@H]54)nc4cc(-c5cc(F)c(F)cc5F)ccc4c3=O)c21 [Example 171, N-((S)-1-(3-(4-chloro-1-methyl-3-(methylsulfonamido)-1H-indazol-7-yl)-4-oxo-7-(2,4,5-trifluorophenyl)-3,4-dihydroquinazolin-2-yl)-2-(3,5-difluorophenyl)ethyl)-2-((3bS,4aR)-3-(difluoromethyl)-5,5-difluoro-3b,4,4a,5-tetrahydro-1H-cyclopropa[3,4]cyclopenta[1,2-c]pyrazol-1-yl)acetamide] | – | 0.48 nM
